“And” between values parts separate entries of the source, which are not always exact repeats. Equal entries are not always repeated. Where two headings read alike, the source gives them in different places.
Assays:
[1] = system: 3D7-strain P. falciparum asexual parasites; experiment: P. falciparum asexual growth inhibition assay (Pf GIA); type: cell-based, Plasmodium falciparum; settings: Plasmodium falciparum
In short: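 Steps: seed parasites (0.25% parasitemia, 2% hematocrit) onto compound dilutions; incubate 72 h at 37°C, 5% O2/5% CO2; freeze at −70°C and thaw; add LDH reaction mix, read A650 after 10 min. Percent growth inhibition derived from chloroquine and DMSO controls, averaged over three biological replicates.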

[2] = HepG2 cytotoxicity assay; settings: human, HepG2 cells
In short: (§1)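 Percent inhibition derived from fluorescent viability readout, normalised to DMSO (negative) and 50 μM doxorubicin (positive). Compound incubation lasted 48 h at 37°C, 5% CO2, with 2,500 HepG2 cells/well in MEM plus 10% FBS and 1% NEAA.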

[3] = system: HepG2 cells; experiment: HepG2 cytotoxicity assay
In short: as §1

[4] = system: P. berghei ookinete development; settings: read-out: IC50 Pb ODA; dose response, at least triplicate
[5] = system: P. falciparum late stage (stages IV-V) gametocytes; parameters: method as in Almela et al 2016; settings: TCAMS screen comparison; ref Almela et al 2016; read-out: Pf GCT ATP IC50; cited from earlier work
[6] = system: P. falciparum female gametocytes; parameters: method as in Miguel-Blanco et al 2017; settings: TCAMS screen comparison; ref Miguel-Blanco et al 2017; read-out: Pf FGAA IC50; cited from earlier work
[7] = system: P. falciparum oocyst intensity; parameters: method as in Colmenarejo et al., 2018; settings: 2 μM; ref Colmenarejo et al., 2018; cited from earlier work
[8] = system: P. falciparum male gametogenesis; parameters: method as in Colmenarejo et al., 2018; settings: 2 μM; ref Colmenarejo et al., 2018; cited from earlier work
[9] = system: HepG2 cells; settings: cited from earlier work
[10] = system: P. berghei ookinete development; experiment: microbe, parasite or virus in culture; settings: Plasmodium berghei
[11] = system: P. berghei oocyst intensity in Anopheles stephensi mosquitoes; experiment: P. berghei standard membrane feeding assay (Pb SMFA)
[12] = system: P. falciparum male gametocytes; experiment: P. falciparum Dual Gamete Formation Assay (Pf DGFA), male readout
[13] = system: P. falciparum female gametocytes; experiment: P. falciparum Dual Gamete Formation Assay (Pf DGFA), female readout

SMILES: CCC1CN2CCc3cc(OC)c(OC)cc3C2CC1CC1NCCc2cc(OC)c(OC)cc21 (stereo not shown) [TCMDC-125849]
- IC50 ([1]; 3D7, dose response confirmation, read-out: Pf asexual growth inhibition assays IC50): 42 nM
- IC50 ([1]; 3D7, 72 h, LDH readout, read-out: IC50 Pf Asexual): 41.9 nM
- IC50 at 48 h [2]: 24000 nM
- IC50 ([3]; Homo sapiens, HepG2, 48 h, read-out: IC50 HepG2): 24000 nM
- Unified cytotox ([3]; human): 14.64 µM
- HepG2 cytoxicity ([3]; value reported with the Pb ODA screen, this manuscript): 23.99 µM
- IC50 [4]: > 250 nM and 268 nM
- IC50 [5]: 120 nM
- IC50 [6]: 1820 nM
- inhibition of oocyst intensity in P. falciparum [7]: 100%
- inhibition of male gametogenesis in P. falciparum [8]: total inhibition
- HepG2 cytoxicity ([9]; value reported with the Pf FGAA screen, ref Miguel-Blanco et al 2017): 2.24 µM
- HepG2 cytoxicity ([9]; value reported with the Pf GCT ATP screen, ref Almela et al 2016): 17.68 µM
- inhibition at 1 µM ([10]; read-out: % inhibition, Replicate A): 118%
- inhibition at 1 µM ([10]; read-out: % inhibition, Replicate B): 98.5%
- IC50 ([10]; read-out: IC50 Pb ODA, dose response, at least triplicate): 0.268 µM
- IC50 ([10]; read-out: Pb ODA IC50 (µM), this manuscript): 0.27 µM
- % inhibition Pb SMFA 1 μM (±SEM) ([11]; inhibition of oocyst intensity at 1 μM): 71.4%
- inhibition at 1 µM ([11]; read-out: % inhibition Pb SMFA 1 μM (±SEM), inhibition of oocyst intensity at 1 μM): 71.4%
- Pf DGFA Male, Expt 1 ([12]; 1µM, Expt 1): 77.97
- Pf DGFA Male, Expt 2 ([12]; 1µM, Expt 2): 55.40
- Pf DGFA Male, Expt 3 ([12]; 1µM, Expt 3): 60.36
- Pf DGFA Male, Expt 4 ([12]; 1µM, Expt 4): 68.13
- % inhibition Pf DGFA (male) 1 μM (±SEM) ([12]; 1 μM, mean of four experiments): 65.46%
- inhibition at 1 µM ([12]; Plasmodium falciparum, read-out: % inhibition Pf DGFA (male) 1 μM (±SEM), 1 μM, mean of four experiments): 65.5%
- Pf DGFA Female, Expt 1 ([13]; 1µM, Expt 1): 99.68
- Pf DGFA Female, Expt 2 ([13]; 1µM, Expt 2): 99.20
- Pf DGFA Female, Expt 3 ([13]; 1µM, Expt 3): 99.79
- Pf DGFA Female, Expt 4 ([13]; 1µM, Expt 4): 98.70
- % inhibition Pf DGFA (female) 1 μM (±SEM) ([13]; 1 μM, mean of four experiments): 99.34%
- inhibition at 1 µM ([13]; Plasmodium falciparum, read-out: % inhibition Pf DGFA (female) 1 μM (±SEM), 1 μM, mean of four experiments): 99.3%
